Where a name gives a salt, the structure may show the parent alone. Read-outs that look alike come from different tables or passages of the source.
Columns and labels:
[1] = tested on: NCI-H292 lung cancer cells; test: FDA drug screening, complete media vs cholesterol-free media without statin (TABLE 1); format: cell-based, human
[2] = tested on: NCI-H292 lung cancer cells; test: FDA drug screening, complete media vs cholesterol-free media with simvastatin (TABLE 2); format: cell-based, human
[3] = Complete minus Cholesterol-free, greater than 0 enhanced anti-cancer activity, about 0 neutral, below 0 antagonist
[4] = NCI-H292 cells, FDA drug library screen, cholesterol-free media without statin
[5] = NCI-H292 cells, FDA drug library screen, complete media
[6] = NCI-H292 cells, drug in cholesterol-free media with simvastatin 0.04 μM
[7] = NCI-H292 cells, drug in complete media
[8] = complete media vs cholesterol-free media + simvastatin (0.04 μM), >0 enhanced anti-cancer activity, about 0 neutral, <0 antagonist
[9] = NCI-H292 cells, cholesterol-free media without statin
[10] = complete vs cholesterol-free media, greater than 0 enhanced anti-cancer activity, about 0 neutral, below 0 antagonists
[11] = NCI-H292 cells, FDA drug library screen, cholesterol-free media with simvastatin 0.04 μM
[12] = complete media minus cholesterol-free media + simvastatin, >0 enhanced anti-cancer activity, about 0 neutral, <0 antagonist
[13] = Complete minus Cholesterol-free, >0 enhanced anti-cancer activity, about 0 neutral, <0 antagonist
[14] = NCI-H292 cells, cholesterol-free media with simvastatin 0.04 μM, cell growth value in FDA drug screen
[15] = NCI-H292 cells, complete media, cell growth value in FDA drug screen

With `CCOC(=O)[C@H](CCc1ccccc1)N[C@@H](C)C(=O)N1[C@H](C(=O)O)C[C@H]2CCCC[C@@H]21` [Trandolapril] the Difference [1, 3] was −0.10, the Cholesterol-free [1, 4] was 1.068 and the Complete [1, 5] was 0.9671. For the same compound, the “Cholesterol-free media + simvastatin (0.04 μM)” value [2, 6] was 1.441, the “Complete Media” value [2, 7] was 1.221 and the Difference [2, 8] was −0.22.

`COc1cc2c(cc1OC)[C@@H]1Cc3ccc(OC)c(OC)c3CN1CC2` [Tetrahydropalmatine] was tested, and the Difference [1, 3] was −0.19, the Cholesterol-free [1, 4] was 1.084 and the Complete [1, 5] was 0.8984. The “Cholesterol-free media + simvastatin (0.04 μM)” value [2, 6] was 0.9937, the “Complete Media” value [2, 7] was 0.7686 and the Difference [2, 8] was −0.23.

Compound `CN1[C@@H]2CC[C@H]1C[C@@H](OC(=O)c1c[nH]c3ccccc13)C2` [Tropisetron] has a Cholesterol-free [1, 9] of 1.242, a Complete ([1]; NCI-H292 cells, complete media) of 0.8867 and a Difference [1, 10] of −0.36. For the same compound, the “Cholesterol-free media + simvastatin (0.04 μM)” value [2, 11] was 0.8445, the “Complete Media” value [2, 5] was 1.139 and the Difference [2, 12] was 0.29.

With `CN1CCC(=C2c3ccccc3CCc3sccc32)CC1` [Pizotifen] the Cholesterol-free [1, 9] was 1.127, the Complete ([1]; NCI-H292 cells, complete media) was 0.7811 and the Difference [1, 10] was −0.35. The “Cholesterol-free media + simvastatin (0.04 μM)” value [2, 11] was 0.849, the “Complete Media” value [2, 5] was 1.216 and the Difference [2, 12] was 0.37.

Compound `O=C(O)c1ccc(NC(=O)[C@H](Cc2ccc(O)cc2)NC(=O)c2ccccc2)cc1` [Bentiromide] has a Difference [1, 13] of −0.23, a Cholesterol-free [1, 9] of 1.105 and a Complete ([1]; NCI-H292 cells, complete media) of 0.8729. For the same compound, the “Cholesterol-free media + simvastatin (0.04 μM)” value [2, 6] was 0.9161, the “Complete Media” value [2, 7] was 0.7117 and the Difference [2, 8] was −0.20.

`COc1cc(NS(C)(=O)=O)ccc1Nc1c2ccccc2nc2ccccc12` [Amsacrine] gave a Difference [1, 13] of −0.20, a Cholesterol-free [1, 9] of 0.3482 and a Complete ([1]; NCI-H292 cells, complete media) of 0.1517. The “Cholesterol-free media + simvastatin (0.04 μM)” value ([2]; NCI-H292 cells, cholesterol-free media with simvastatin 0.04 μM, FDA drug library screen (TABLE 2)) was 0.3844, the “Complete Media” value ([2]; NCI-H292 cells, complete media, FDA drug library screen (TABLE 2)) was 0.346 and the Difference ([2]; complete media minus cholesterol-free media + simvastatin (0.04 μM), >0 enhanced anti-cancer activity, about 0 neutral, <0 antagonist) was −0.04.

`O=C1c2c(O)ccc(O)c2C(=O)c2c(NCCNCCO)ccc(NCCNCCO)c21` [Mitoxantrone (dihydrochloride)] showed a Difference [1, 13] of 0.00, a Cholesterol-free ([1]; NCI-H292 cells, cholesterol-free media without statin, FDA drug library screen) of −0.002893 and a Complete ([1]; NCI-H292 cells, complete media, FDA drug library screen) of −0.002012. For the same compound, the “Cholesterol-free media + simvastatin (0.04 μM)” value [2, 14] was 0.006643, the “Complete Media” value [2, 15] was 0.04976 and the Difference [2, 12] was 0.04.

Heparin (sodium salt) (MW 15 kDa) was tested, and the Difference ([1]; Complete minus Cholesterol-free, […]) was −0.29, the Cholesterol-free [1, 9] was 1.451 and the Complete ([1]; NCI-H292 cells, complete media) was 1.156. The “Complete Media” value [2, 5] was 1.339 and the Difference ([2]; complete media minus cholesterol-free media + simvastatin, […]) was 0.23.

`Cn1cc[nH]c1=S` [Methimazole] showed a Difference [1, 13] of −0.20, a Cholesterol-free [1, 9] of 1.024 and a Complete ([1]; NCI-H292 cells, complete media) of 0.8245. The “Cholesterol-free media + simvastatin (0.04 μM)” value [2, 11] was 1.144, the “Complete Media” value [2, 5] was 1.001 and the Difference [2, 8] was −0.14.

Compound `CC[C@H](C)C(=O)O[C@H]1C[C@H](O)C=C2C=C[C@H](C)[C@H](CC[C@@H](O)C[C@@H](O)CC(=O)[O-])[C@H]21.[Na+]` [Pravastatin (sodium)] has a Difference ([1]; Complete minus Cholesterol-free, greater than 0 enhanced anti-cancer activity, about 0 neutral, below 0 antagonists) of −0.48, a Cholesterol-free ([1]; NCI-H292 cells in cholesterol-free media without statin) of 1.713 and a Complete ([1]; NCI-H292 cells in complete media) of 1.238. The “Cholesterol-free media + simvastatin (0.04 μM)” value [2, 14] was 1.193, the “Complete Media” value [2, 15] was 1.235 and the Difference [2, 12] was 0.04.

Compound `O=C(O)Cc1ccccc1Nc1c(Cl)cccc1Cl` [Diclofenac (Sodium)] has a Difference [1, 13] of −0.23, a Cholesterol-free [1, 9] of 1.086 and a Complete ([1]; NCI-H292 cells, complete media) of 0.859. The “Cholesterol-free media + simvastatin (0.04 μM)” value ([2]; NCI-H292 cells, FDA library drug in cholesterol-free media with simvastatin 0.04 μM) was 1.356, the “Complete Media” value ([2]; NCI-H292 cells, FDA library drug in complete media) was 0.9075 and the Difference [2, 8] was −0.45.

In the case of `CC(C)Cn1cnc2c(N)nc3ccccc3c21` [Imiquimod], the Cholesterol-free [1] is reported as 0.6962, the Complete [1] is reported as 1.326 and the Difference [1] is reported as 0.63. The “Cholesterol-free media + simvastatin (0.04 μM)” value [2] was 1.141, the “Complete Media” value [2] was 0.8713 and the Difference [2] was −0.27.

Compound `O=C1O[C@H]([C@@H](O)CO)C(O)=C1O` [L-Ascorbic acid] has a Difference [1, 3] of −0.14, a Cholesterol-free [1, 4] of 1.001 and a Complete [1, 5] of 0.8619. The “Cholesterol-free media + simvastatin (0.04 μM)” value [2, 11] was 1.16, the “Complete Media” value [2, 5] was 1.003 and the Difference [2, 8] was −0.16.

`c1ccc(CC2=NCCN2)cc1` [Tolazoline (hydrochloride)] was tested, and the Difference [1, 13] was −0.25, the Cholesterol-free [1, 9] was 1.249 and the Complete ([1]; NCI-H292 cells, complete media) was 0.9982. The “Cholesterol-free media + simvastatin (0.04 μM)” value [2, 6] was 1.363, the “Complete Media” value [2, 7] was 1.126 and the Difference [2, 8] was −0.24.
